In ChEMBL document CHEMBL5058645, “Data for DCP probe JNJ-6204” (2022):

Legend:
[1] = target: Ribosomal protein S6 kinase alpha-4 (Homo sapiens) (UniProt O75676); assay: MSK2(h) Kinase panel; conditions: Compound concentration 1.0 uM, tested as the 2H-labelled form
[2] = target: Serine/threonine-protein kinase D3 (Homo sapiens) (UniProt O94806); assay: PKD3(h) Kinase panel; conditions: Compound concentration 1.0 uM, tested as the 2H-labelled form
[3] = target: Sodium-dependent dopamine transporter (Homo sapiens, UniProt Q01959); conditions: Compound concentration 10.0 uM, tested as the 2H-labelled form
[4] = target: TGF-beta receptor type-1 (Homo sapiens) (UniProt P36897); assay: TGFBR1(h) Kinase panel; conditions: Compound concentration 1.0 uM, tested as the 2H-labelled form
[5] = target: cAMP-dependent protein kinase catalytic subunit PRKX (Homo sapiens) (UniProt P51817); assay: PrKX(h) Kinase panel; conditions: Compound concentration 1.0 uM, tested as the 2H-labelled form
[6] = target: Serine/threonine-protein kinase 4 (Homo sapiens) (UniProt Q13043); assay: MST1(h) Kinase panel; conditions: Compound concentration 1.0 uM, tested as the 2H-labelled form
[7] = target: Histamine H3 receptor (Homo sapiens) (UniProt Q9Y5N1); conditions: Compound concentration 10.0 uM, tested as the 2H-labelled form
[8] = target: Mitogen-activated protein kinase kinase kinase kinase 3 (Homo sapiens) (UniProt Q8IVH8); assay: MAP4K3(h) Kinase panel; conditions: Compound concentration 1.0 uM, tested as the 2H-labelled form
[9] = target: Serine/threonine-protein kinase PAK 5 (Homo sapiens) (UniProt Q9P286); assay: PAK5(h) Kinase panel; conditions: Compound concentration 1.0 uM, tested as the 2H-labelled form
[10] = target: Cyclin-dependent kinase 5 (Homo sapiens) (UniProt Q00535); assay: CDK5/p35(h) Kinase panel; conditions: Compound concentration 1.0 uM, tested as the 2H-labelled form
[11] = target: Death-associated protein kinase 1 (Homo sapiens) (UniProt P53355); assay: DAPK1(h) Kinase panel; conditions: Compound concentration 1.0 uM, tested as the 2H-labelled form
[12] = target: RAC-alpha serine/threonine-protein kinase (Homo sapiens) (UniProt P31749); assay: PKBalpha (h) Kinase panel; conditions: Compound concentration 1.0 uM, tested as the 2H-labelled form
[13] = target: Mitogen-activated protein kinase kinase kinase 10 (Homo sapiens) (UniProt Q02779); assay: MLK2(h) Kinase panel; conditions: Compound concentration 1.0 uM, tested as the 2H-labelled form
[14] = target: Homeodomain-interacting protein kinase 4 (Homo sapiens) (UniProt Q8NE63); assay: HIPK4(h) Kinase panel; conditions: Compound concentration 1.0 uM, tested as the 2H-labelled form
[15] = target: Serine/threonine-protein kinase Sgk1 (Homo sapiens) (UniProt O00141); assay: SGK(h) Kinase panel; conditions: Compound concentration 1.0 uM, tested as the 2H-labelled form
[16] = target: Receptor tyrosine-protein kinase erbB-2 (Homo sapiens) (UniProt P04626); assay: ErbB2(h) Kinase panel; conditions: Compound concentration 1.0 uM, tested as the 2H-labelled form
[17] = target: Protein kinase C iota type (Homo sapiens) (UniProt P41743); assay: PKCiota (h) Kinase panel; conditions: Compound concentration 1.0 uM, tested as the 2H-labelled form
[18] = target: Phosphatidylinositol 4,5-bisphosphate 3-kinase catalytic subunit delta isoform (Homo sapiens) (UniProt O00329); assay: PI3 Kinase (p110d/p85a)(h) Kinase panel; conditions: Compound concentration 1.0 uM, tested as the 2H-labelled form
[19] = target: Serine/threonine-protein kinase Sgk3 (Homo sapiens) (UniProt Q96BR1); assay: SGK3(h) Kinase panel; conditions: Compound concentration 1.0 uM, tested as the 2H-labelled form
[20] = target: Calcium/calmodulin-dependent protein kinase type II subunit alpha (Homo sapiens) (UniProt Q9UQM7); assay: CaMKIIalpha(h) Kinase panel; conditions: Compound concentration 1.0 uM, tested as the 2H-labelled form
[21] = target: Tyrosine-protein kinase CSK (Homo sapiens) (UniProt P41240); assay: CSK(h) Kinase panel; conditions: Compound concentration 1.0 uM, tested as the 2H-labelled form
[22] = target: Cyclin-dependent kinase 13 (Homo sapiens) (UniProt Q14004); assay: CDK13/cyclinK(h) Kinase panel; conditions: Compound concentration 1.0 uM, tested as the 2H-labelled form
[23] = target: Serine/threonine-protein kinase MAK (Homo sapiens) (UniProt P20794); assay: MAK(h) Kinase panel; conditions: Compound concentration 1.0 uM, tested as the 2H-labelled form
[24] = target: Serine/threonine-protein kinase D2 (Homo sapiens) (UniProt Q9BZL6); assay: PKD2(h) Kinase panel; conditions: Compound concentration 1.0 uM, tested as the 2H-labelled form
[25] = target: Receptor-interacting serine/threonine-protein kinase 1 (Homo sapiens) (UniProt Q13546); assay: RIPK1(h) Kinase panel; conditions: Compound concentration 1.0 uM, tested as the 2H-labelled form
[26] = target: Tyrosine-protein kinase Fgr (Homo sapiens) (UniProt P09769); assay: Fgr(h) Kinase panel; conditions: Compound concentration 1.0 uM, tested as the 2H-labelled form
[27] = target: PAS domain-containing serine/threonine-protein kinase (Homo sapiens) (UniProt Q96RG2); assay: PASK(h) Kinase panel; conditions: Compound concentration 1.0 uM, tested as the 2H-labelled form
[28] = target: Ribosomal protein S6 kinase alpha-1 (Homo sapiens) (UniProt Q15418); assay: Rsk1(h) Kinase panel; conditions: Compound concentration 1.0 uM, tested as the 2H-labelled form
[29] = target: Serine/threonine-protein kinase SBK1 (Homo sapiens) (UniProt Q52WX2); assay: SBK1(h) Kinase panel; conditions: Compound concentration 1.0 uM, tested as the 2H-labelled form
[30] = target: Calcium/calmodulin-dependent protein kinase type II subunit delta (Homo sapiens) (UniProt Q13557); assay: CaMKIIdelta(h) Kinase panel; conditions: Compound concentration 1.0 uM, tested as the 2H-labelled form
[31] = target: RAC-beta serine/threonine-protein kinase (Homo sapiens) (UniProt P31751); assay: PKBbeta (h) Kinase panel; conditions: Compound concentration 1.0 uM, tested as the 2H-labelled form
[32] = target: Ephrin type-B receptor 4 (Homo sapiens) (UniProt P54760); assay: EphB4(h) Kinase panel; conditions: Compound concentration 1.0 uM, tested as the 2H-labelled form
[33] = target: Leukocyte tyrosine kinase receptor (Homo sapiens) (UniProt P29376); assay: LTK(h) Kinase panel; conditions: Compound concentration 1.0 uM, tested as the 2H-labelled form
[34] = target: Ephrin type-A receptor 8 (Homo sapiens) (UniProt P29322); assay: EphA8(h) Kinase panel; conditions: Compound concentration 1.0 uM, tested as the 2H-labelled form
[35] = target: Interferon-induced, double-stranded RNA-activated protein kinase (Homo sapiens) (UniProt P19525); assay: PKR(h) Kinase panel; conditions: Compound concentration 1.0 uM, tested as the 2H-labelled form
[36] = target: Casein kinase I isoform gamma-1 (Homo sapiens) (UniProt Q9HCP0); assay: CK1gamma1(h) Kinase panel; conditions: Compound concentration 1.0 uM, tested as the 2H-labelled form
[37] = target: Serine/threonine-protein kinase MRCK beta (Homo sapiens) (UniProt Q9Y5S2); assay: MRCKbeta(h) Kinase panel; conditions: Compound concentration 1.0 uM, tested as the 2H-labelled form
[38] = target: Tyrosine-protein kinase HCK (Homo sapiens) (UniProt P08631); assay: Hck(h) Kinase panel; conditions: Compound concentration 1.0 uM, tested as the 2H-labelled form
[39] = target: Cyclin-dependent kinase 7 (Homo sapiens) (UniProt P50613); assay: CDK7/cyclinH/MAT1(h) Kinase panel; conditions: Compound concentration 1.0 uM, tested as the 2H-labelled form
[40] = target: Tyrosine-protein kinase JAK2 (Homo sapiens) (UniProt O60674); assay: JAK2(h) Kinase panel; conditions: Compound concentration 1.0 uM, tested as the 2H-labelled form
[41] = target: Serine/threonine-protein kinase DCLK1 (Homo sapiens) (UniProt O15075); assay: DCAMKL1(h) Kinase panel; conditions: Compound concentration 1.0 uM, tested as the 2H-labelled form
[42] = target: 5-hydroxytryptamine receptor 2A (Homo sapiens) (UniProt P28223); conditions: Compound concentration 10.0 uM, tested as the 2H-labelled form
[43] = target: D(2) dopamine receptor (Homo sapiens) (UniProt P14416); conditions: Compound concentration 10.0 uM, tested as the 2H-labelled form
[44] = target: Phosphatidylinositol 4-phosphate 5-kinase type-1 alpha (Homo sapiens) (UniProt Q99755); assay: PIP5K1a(h) Kinase panel; conditions: Compound concentration 1.0 uM, tested as the 2H-labelled form
[45] = target: MAP/microtubule affinity-regulating kinase 3 (Homo sapiens) (UniProt P27448); assay: MARK3(h) Kinase panel; conditions: Compound concentration 1.0 uM, tested as the 2H-labelled form
[46] = target: Tyrosine-protein kinase Lyn (Homo sapiens) (UniProt P07948); assay: Lyn(h) Kinase panel; conditions: Compound concentration 1.0 uM, tested as the 2H-labelled form
[47] = target: Dual specificity mitogen-activated protein kinase kinase 3 (Homo sapiens) (UniProt P46734); assay: MKK3(h) Kinase panel; conditions: Compound concentration 1.0 uM, tested as the 2H-labelled form
[48] = target: cGMP-dependent protein kinase 1 (Homo sapiens) (UniProt Q13976); assay: PKG1beta (h) Kinase panel; conditions: Compound concentration 1.0 uM, tested as the 2H-labelled form
[49] = target: Platelet-derived growth factor receptor alpha (Homo sapiens) (UniProt P16234); assay: PDGFRalpha(h) Kinase panel; conditions: Compound concentration 1.0 uM, tested as the 2H-labelled form
[50] = target: Alpha-2B adrenergic receptor (Homo sapiens) (UniProt P18089); conditions: Compound concentration 10.0 uM, tested as the 2H-labelled form
[51] = target: Serine/threonine-protein kinase 32A (Homo sapiens) (UniProt Q8WU08); assay: STK32A(h) Kinase panel; conditions: Compound concentration 1.0 uM, tested as the 2H-labelled form

Chain of cAMP-dependent protein kinase catalytic subunit PRKX (Homo sapiens) (P51817 whole entry): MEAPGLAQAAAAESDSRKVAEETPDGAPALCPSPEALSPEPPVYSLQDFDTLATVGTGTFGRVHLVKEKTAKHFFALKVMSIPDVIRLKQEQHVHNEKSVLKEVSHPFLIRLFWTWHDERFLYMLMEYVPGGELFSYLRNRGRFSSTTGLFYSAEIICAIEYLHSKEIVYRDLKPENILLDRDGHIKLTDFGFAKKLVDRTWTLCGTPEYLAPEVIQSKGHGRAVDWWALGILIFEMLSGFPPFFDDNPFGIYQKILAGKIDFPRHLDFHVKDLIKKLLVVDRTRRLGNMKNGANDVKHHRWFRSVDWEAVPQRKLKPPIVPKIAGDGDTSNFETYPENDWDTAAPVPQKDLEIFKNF
Chain of Histamine H3 receptor (Homo sapiens) (Q9Y5N1 whole entry): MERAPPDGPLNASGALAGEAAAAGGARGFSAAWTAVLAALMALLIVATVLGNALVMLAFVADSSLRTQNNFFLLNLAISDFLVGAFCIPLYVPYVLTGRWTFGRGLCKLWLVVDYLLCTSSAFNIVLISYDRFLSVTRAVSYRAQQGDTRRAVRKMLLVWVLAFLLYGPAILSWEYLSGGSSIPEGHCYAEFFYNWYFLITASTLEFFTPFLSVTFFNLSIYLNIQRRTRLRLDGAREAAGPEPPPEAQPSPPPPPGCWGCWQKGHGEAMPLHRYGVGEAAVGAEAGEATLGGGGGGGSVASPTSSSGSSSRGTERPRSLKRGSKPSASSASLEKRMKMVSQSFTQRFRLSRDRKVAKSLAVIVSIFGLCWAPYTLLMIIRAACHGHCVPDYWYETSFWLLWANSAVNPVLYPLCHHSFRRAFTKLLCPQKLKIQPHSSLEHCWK
Chain of Platelet-derived growth factor receptor alpha (Homo sapiens) (P16234 whole entry): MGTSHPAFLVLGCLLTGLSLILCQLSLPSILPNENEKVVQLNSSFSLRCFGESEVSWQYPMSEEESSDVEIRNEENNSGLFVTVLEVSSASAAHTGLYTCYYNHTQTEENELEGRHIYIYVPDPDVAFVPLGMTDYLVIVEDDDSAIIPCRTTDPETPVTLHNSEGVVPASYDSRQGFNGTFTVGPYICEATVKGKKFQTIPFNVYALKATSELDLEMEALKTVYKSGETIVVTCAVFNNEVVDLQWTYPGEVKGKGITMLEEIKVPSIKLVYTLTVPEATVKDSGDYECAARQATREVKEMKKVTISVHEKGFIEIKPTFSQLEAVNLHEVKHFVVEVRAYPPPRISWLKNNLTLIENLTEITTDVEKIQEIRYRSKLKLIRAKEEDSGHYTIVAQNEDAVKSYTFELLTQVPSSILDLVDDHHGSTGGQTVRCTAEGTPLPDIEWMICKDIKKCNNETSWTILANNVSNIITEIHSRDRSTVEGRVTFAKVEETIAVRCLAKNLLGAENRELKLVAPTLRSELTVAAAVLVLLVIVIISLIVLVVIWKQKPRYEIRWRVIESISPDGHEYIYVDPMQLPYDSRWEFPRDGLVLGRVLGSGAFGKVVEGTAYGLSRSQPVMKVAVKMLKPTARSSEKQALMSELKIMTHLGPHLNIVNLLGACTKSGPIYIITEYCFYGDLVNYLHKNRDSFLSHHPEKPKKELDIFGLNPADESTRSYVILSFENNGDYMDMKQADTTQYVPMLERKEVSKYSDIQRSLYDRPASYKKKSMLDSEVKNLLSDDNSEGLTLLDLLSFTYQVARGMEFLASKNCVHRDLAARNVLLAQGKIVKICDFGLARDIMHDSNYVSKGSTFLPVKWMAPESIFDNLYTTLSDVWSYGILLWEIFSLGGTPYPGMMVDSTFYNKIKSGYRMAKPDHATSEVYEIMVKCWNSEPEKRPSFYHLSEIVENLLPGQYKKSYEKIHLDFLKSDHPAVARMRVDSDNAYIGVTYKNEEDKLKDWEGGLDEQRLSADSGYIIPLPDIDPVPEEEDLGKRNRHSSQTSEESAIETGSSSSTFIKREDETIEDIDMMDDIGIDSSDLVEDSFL
Chain of Homeodomain-interacting protein kinase 4 (Homo sapiens) (Q8NE63 whole entry): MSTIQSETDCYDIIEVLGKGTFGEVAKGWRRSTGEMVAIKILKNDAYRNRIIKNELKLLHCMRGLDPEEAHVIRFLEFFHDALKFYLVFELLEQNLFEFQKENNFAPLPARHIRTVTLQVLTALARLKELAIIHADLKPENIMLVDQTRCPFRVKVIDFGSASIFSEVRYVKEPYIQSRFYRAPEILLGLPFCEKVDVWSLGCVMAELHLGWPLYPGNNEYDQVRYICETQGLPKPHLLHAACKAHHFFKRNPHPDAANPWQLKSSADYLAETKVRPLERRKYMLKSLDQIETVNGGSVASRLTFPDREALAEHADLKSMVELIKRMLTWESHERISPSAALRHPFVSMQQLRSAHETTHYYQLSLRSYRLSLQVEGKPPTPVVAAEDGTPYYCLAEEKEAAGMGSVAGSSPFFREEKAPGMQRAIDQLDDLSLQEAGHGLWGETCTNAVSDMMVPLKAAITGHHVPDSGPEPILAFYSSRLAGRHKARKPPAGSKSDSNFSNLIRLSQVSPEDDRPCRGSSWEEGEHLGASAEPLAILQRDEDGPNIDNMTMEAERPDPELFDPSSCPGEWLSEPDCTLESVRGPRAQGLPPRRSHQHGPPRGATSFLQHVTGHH
Chain of Sodium-dependent dopamine transporter (Q01959 whole entry): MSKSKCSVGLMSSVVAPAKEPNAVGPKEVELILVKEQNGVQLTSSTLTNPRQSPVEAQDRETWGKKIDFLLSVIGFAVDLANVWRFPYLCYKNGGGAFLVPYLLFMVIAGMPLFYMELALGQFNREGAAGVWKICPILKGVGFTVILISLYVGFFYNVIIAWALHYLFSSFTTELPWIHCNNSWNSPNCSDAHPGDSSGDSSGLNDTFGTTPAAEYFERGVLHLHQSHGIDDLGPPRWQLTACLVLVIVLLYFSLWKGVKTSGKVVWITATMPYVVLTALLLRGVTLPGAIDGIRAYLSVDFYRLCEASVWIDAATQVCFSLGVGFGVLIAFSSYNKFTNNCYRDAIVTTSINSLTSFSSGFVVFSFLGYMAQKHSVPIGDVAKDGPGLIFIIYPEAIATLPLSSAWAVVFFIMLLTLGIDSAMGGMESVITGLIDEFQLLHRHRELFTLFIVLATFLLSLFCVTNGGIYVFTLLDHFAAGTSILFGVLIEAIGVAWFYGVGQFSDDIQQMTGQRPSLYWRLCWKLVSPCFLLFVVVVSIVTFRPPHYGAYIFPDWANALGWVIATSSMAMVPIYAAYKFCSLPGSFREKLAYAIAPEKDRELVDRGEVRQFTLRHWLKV
Chain of Phosphatidylinositol 4-phosphate 5-kinase type-1 alpha (Homo sapiens) (Q99755 whole entry): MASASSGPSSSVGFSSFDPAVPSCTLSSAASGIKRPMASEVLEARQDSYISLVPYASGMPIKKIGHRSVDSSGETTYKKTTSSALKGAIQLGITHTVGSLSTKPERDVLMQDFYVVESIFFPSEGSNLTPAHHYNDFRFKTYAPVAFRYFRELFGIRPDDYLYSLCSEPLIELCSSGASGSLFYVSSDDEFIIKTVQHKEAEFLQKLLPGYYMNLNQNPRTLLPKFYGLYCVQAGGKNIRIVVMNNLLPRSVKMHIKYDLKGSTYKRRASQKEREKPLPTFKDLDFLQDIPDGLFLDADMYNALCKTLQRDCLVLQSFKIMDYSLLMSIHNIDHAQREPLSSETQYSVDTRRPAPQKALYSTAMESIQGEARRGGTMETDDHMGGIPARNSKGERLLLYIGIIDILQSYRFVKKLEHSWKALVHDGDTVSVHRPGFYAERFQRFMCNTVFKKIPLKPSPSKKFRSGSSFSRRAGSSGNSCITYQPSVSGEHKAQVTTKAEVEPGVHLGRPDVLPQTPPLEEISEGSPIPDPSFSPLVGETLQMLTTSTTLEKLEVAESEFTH
Chain of Cyclin-dependent kinase 5 (Homo sapiens) (Q00535 whole entry, looked up): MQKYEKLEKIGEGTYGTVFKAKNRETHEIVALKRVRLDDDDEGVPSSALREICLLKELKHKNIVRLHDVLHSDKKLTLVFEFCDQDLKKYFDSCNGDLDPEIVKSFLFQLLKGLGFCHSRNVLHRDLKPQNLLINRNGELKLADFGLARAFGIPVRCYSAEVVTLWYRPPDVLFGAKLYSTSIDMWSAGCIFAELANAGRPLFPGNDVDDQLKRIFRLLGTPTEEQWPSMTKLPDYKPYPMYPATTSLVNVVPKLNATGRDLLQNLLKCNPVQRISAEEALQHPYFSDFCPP
Chain of RAC-alpha serine/threonine-protein kinase (Homo sapiens) (P31749 whole entry): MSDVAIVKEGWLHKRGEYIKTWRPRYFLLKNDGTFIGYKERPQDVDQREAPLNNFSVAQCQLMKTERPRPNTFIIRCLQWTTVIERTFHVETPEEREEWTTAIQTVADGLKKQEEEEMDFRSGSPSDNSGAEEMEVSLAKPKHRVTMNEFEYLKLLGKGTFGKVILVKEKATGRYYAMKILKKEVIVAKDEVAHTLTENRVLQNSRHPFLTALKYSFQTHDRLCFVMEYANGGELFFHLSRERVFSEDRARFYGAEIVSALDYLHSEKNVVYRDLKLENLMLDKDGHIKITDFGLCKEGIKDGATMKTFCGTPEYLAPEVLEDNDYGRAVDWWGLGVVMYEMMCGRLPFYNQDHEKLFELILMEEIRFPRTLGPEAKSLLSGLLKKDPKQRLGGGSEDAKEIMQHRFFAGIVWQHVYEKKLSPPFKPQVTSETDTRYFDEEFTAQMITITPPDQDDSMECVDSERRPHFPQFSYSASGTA
Chain of Tyrosine-protein kinase Fgr (Homo sapiens) (P09769 2-529 limits assumed): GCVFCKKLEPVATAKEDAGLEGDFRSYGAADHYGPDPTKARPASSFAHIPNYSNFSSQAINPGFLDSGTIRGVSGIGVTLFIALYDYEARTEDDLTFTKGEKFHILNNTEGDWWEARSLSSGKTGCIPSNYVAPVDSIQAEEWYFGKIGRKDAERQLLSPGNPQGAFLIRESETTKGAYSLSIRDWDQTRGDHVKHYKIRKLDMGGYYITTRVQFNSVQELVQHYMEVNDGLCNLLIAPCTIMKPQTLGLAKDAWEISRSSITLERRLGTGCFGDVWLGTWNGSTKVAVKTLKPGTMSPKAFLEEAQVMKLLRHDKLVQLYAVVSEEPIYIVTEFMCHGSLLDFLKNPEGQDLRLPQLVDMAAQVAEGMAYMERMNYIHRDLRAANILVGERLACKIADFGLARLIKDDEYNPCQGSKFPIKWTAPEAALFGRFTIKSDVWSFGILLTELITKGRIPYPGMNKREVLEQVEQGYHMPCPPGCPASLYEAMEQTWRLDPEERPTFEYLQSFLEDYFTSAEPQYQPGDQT

- inhibition [1]: -1%
- inhibition [2]: 17%
- inhibition [3]: 43.8%
- inhibition [4]: 43%
- inhibition [5]: 0%
- inhibition [6]: -4%
- inhibition [7]: -1.16%
- inhibition [8]: -7%
- inhibition [9]: 2%
- inhibition [10]: 15%
- inhibition [12]: 2%
- inhibition [13]: 8%
- inhibition [14]: 8%
- inhibition [15]: 11%
- inhibition [16]: 9%
- inhibition [17]: -2%
- inhibition [18]: 2%
- inhibition [19]: 4%
- inhibition [20]: 0%
- inhibition [21]: -3%
- inhibition [22]: 0%
- inhibition [23]: 10%
- inhibition [24]: 5%
- inhibition [25]: 5%
- inhibition [26]: 7%
- inhibition [27]: 24%
- inhibition [28]: 9%
- inhibition [29]: -1%
- inhibition [30]: -6%
- inhibition [31]: 0%
- inhibition [32]: -2%
- inhibition [33]: 13%
- inhibition [34]: 2%
- inhibition [35]: 4%
- inhibition [36]: 4%
- inhibition [37]: 2%
- inhibition [38]: 25%
- inhibition [39]: -8%
- inhibition [40]: 1%
- inhibition [41]: 10%
- inhibition [42]: 16.5%
- inhibition [43]: 4.12%
- inhibition [44]: -4%
- inhibition [45]: -2%
- inhibition [46]: 21%
- inhibition [47]: 7%
- inhibition [48]: 13%
- inhibition [49]: 2%
- inhibition [50]: 2.83%
- inhibition [51]: 9%
Compound: CC1(C)Cn2nc(-c3ccc(F)cn3)c(-c3ccnc4[nH]ncc34)c2CO1
- inhibition [11]: 10%
